Values after ≈ are worked out from the molar mass of the structure shown. Like-named read-outs stand apart in the source and are kept apart here. Marks after values point to notes of the source that are not given here. Where no end group is shown, it is not given here.
How the values were obtained:
[1] = tested on: Enterococcus faecalis (ATCC 29212); experiment: microbe, parasite or virus in culture; assay type: cell-based
Procedure: (§1) The gram-positive bacterial strains are: Enterococcus faecalis (ATCC 29212), and Staphylococcus aureus (ATCC 25923) and the gram-negative strains are: Escherichia coli (ATCC 25922), Pseudomonas aeruginosa (ATCC 27853) and Salmonella typhimurim (clinical isolate), Salmonella typhiTy2 (WHO). The bacteria are cultured with shaking all night at 37° C., then recultured at a dilution of 1:50 in some fresh Luria-Bertani (LB) medium for 2 hours. The bacterial concentration is adjusted to […], and 50 μl is distributed in 96-well plates with an equal volume of peptides diluted half and half (256-0.5 μg/ml) in LB medium. […] To determine the minimum bactericide concentration, 10 μl from each well is spread on gelose plates in LB medium.
(§2) The results are expressed as the peptide concentration in MBC (μM).

[2] = tested on: Staphylococcus aureus (ATCC 25923); experiment: microbe, parasite or virus in culture; assay type: cell-based
Procedure: as §1, §2

[3] = tested on: Pseudomonas aeruginosa (ATCC 27853); experiment: microbe, parasite or virus in culture; assay type: cell-based
Procedure: as §1, §2

[4] = tested on: Escherichia coli (ATCC 25922); experiment: microbe, parasite or virus in culture; assay type: cell-based
Procedure: as §1, §2

[5] = tested on: gram-positive and gram-negative bacterial strains; experiment: Antibacterial activity of cationic peptides, summary over strains; assay type: cell-based; settings: summary of Table 29
Procedure: as §1
However, when peptide HPB13 (SEQ ID NO: 38) is coupled with peptide SEQ ID NO: 24, it enhances its activity by a factor of 50 to 100 (peptide SEQ ID NO: 45). […] None these peptides are active on gram-positive bacteria.

cells = experiment: Penetration of biotinylated peptides inside cells (microscopy, S-PO coloration); assay type: cell-based; settings: biotinylated peptides 50 to 6 μg/ml, 1-18 hours, revealed with S-PO
Procedure: The cells are cultivated in the presence of the different peptides carrying, on the N-terminal side, biotin in decreasing concentrations (50 to 6 μg/ml) in the culture medium for variable times (1-18 hours).
At the end of the culture, the cells are washed three times with PBS (0.15 M NaCl buffered with 0.01 M potassium phosphate buffer pH 7.4) then fixed 15 minutes in ethanol at −20° C. The penetration of the peptide is evaluated after incubation for 30 minutes with streptavidin conjugated with peroxidase (abbreviated S-PO for streptavidin-peroxidase). Then, the S-PO is eliminated, and the cells are washed. […] With the other peptides, positive colorations, but of variable intensity, were noted.

[6] = tested on: Salmonella typhimurim (clinical isolate); experiment: Antibacterial activity of cationic peptides (MBC); assay type: cell-based; settings: S. typhimurium
Procedure: as §1, §2

H1299 cells = experiment: Internalization of biotinylated peptide/S-PO complexes; assay type: cell-based, human; settings: peptide: S-PO complexes of 4:1, peptide concentration of 1 μg
Procedure: A biotinylated/S-PO peptide or biotinylated/A-PO complex (A-PO for avidin-peroxidase) is prepared extemporaneously in two ways:
1) either in a peptide: S-PO or A-PO molar ratio of 4:1 (for example, 1.4 μg of peptide with a molecular weight of 3500 to 10 μg of S-PO; the weight of S-PO used varies depending on the peptides since their molecular weights are different).
2) or in a peptide: S-PO or A-PO molar ratio of 25:1 (for example 1.7 μg of peptide with a molecular weight of 3500 to 1 μg of S-PO).
The complexes are prepared by incubating the biotinylated peptide with S-PO or A-PO in PBS in a volume of 5 to 10 μl for 15 minutes at laboratory temperature. They are then diluted in 1 ml of complete culture medium, filtered on a 0.2 micron membrane and incubated with the cells for 4 hours. The cells are then washed three times with PBS.
To study the penetration of the complexes under a microscope, the cells are fixed as before for 15 minutes in ethanol at −20° C., they are washed with PBS, and the activity of the internalized peroxidase is shown by diaminobenzidine in the presence of H2O2. To measure the quantity of peptide/S-PO or A-PO complexes internalized, the cells are trypsinized, transferred into microtubes and counted. They are washed twice by centrifugation, then the residue is suspended in 200 μl of lysis buffer (Tris buffer, 0.1 M, pH8, 0.5% Nonidet). After 15 minutes, the peroxidase contained in the lysis buffer is dosed onto 96-well plates with ortho-dianisidine and H2O2 by comparison with a standard curve for S-PO. The reading is taken at 450 nm. The quantity contained in the different samples is expressed in picograms (pg) per 10^4 cells.
Table 7 below reports the results of evaluating the influence of SEQ ID NO: 1 on the penetration of peptides coupled to SEQ ID NO: 1 into H1299 cells, where
Concentration a: 25 peptides to one molecule of S-PO (1 μg),
Concentration b: 4 peptides to one molecule of S-PO (10 μg).

CHO cells = experiment: In vitro transfection with luciferase plasmid using peptides; assay type: cell-based, Chinese hamster; settings: for luciferase expression RLU: 3 μg of plasmid PCMV-LUC and 3.3 nmoles of peptide
Procedure: The plasmid used is PCMV-LUC (6.4 kb) carrying the luciferase gene under the control of the promoter of the human cytomegalovirus.
The plasmid-peptide complexes are prepared by adding 3 μg of plasmid to 50 μl of NaCl, 0.15 M and 3.3 nmoles of SEQ ID NO: 22 and 23 for 15 minutes. The complexes are prepared in triplicate.
CHO cells are cultivated in the complete medium MEM Alpha containing 6% fetal calf serum and sown with 5×10^4 cells per well on a 24-well plate the evening before the experiment. The wells are then emptied of the medium, and the plasmid-peptide complex is added to them (3 μg of plasmid and 3.3 nmoles of peptide in 0.5 ml of complete medium for 5 hours at 37° C.). The medium is then replaced with the complete medium, and the culture is continued for 18-20 hours. The cells are then washed three times with PBS, then lysed with 100 μl of lysis buffer (Promega) containing 1% Triton X-100 and 2 mM DTT.
Then a 15 μl sample of the lysate is taken to measure the luciferase with the Promega luciferin kit and 15 other μl to calculate the quantity of proteins in the lysate using the Bradford Test. The relative luciferase units (RLU) are reported in mg of proteins.

[7] = tested on: Salmonella typhiTy2 (WHO); experiment: microbe, parasite or virus in culture; assay type: cell-based, S. typhi-Ty2
Procedure: as §1, §2

3T3 cells = experiment: In vitro transfection with luciferase plasmid using peptides; assay type: cell-based, mouse; settings: for RLU value relative to peptide SEQ ID NO: 41: 3T3 cells; for luciferase expression RLU: peptide and plasmid pCMVLUC complexed at 1.6 nmoles/μg
Procedure: Technique: The plasmid pCMVLUC (carrying the gene for luciferase) provided by Qiagen is used according to their instructions. 3T3 cells are sown the night before in 24-well plates (8×10^4 cells/well) in the complete culture medium.
The peptides and the plasmid are complexed in a ratio of 1.6 nmoles/μg in 50 μl of NaCl 0.15M for 20 minutes at laboratory temperature. The cells are then washed, and the peptide-plasmid complex added to the cells in 0.5 ml of complete medium. After 5 hours of incubation at 37° C., the reaction medium is eliminated, and 1 ml of complete medium is added to the cells. After 24 hours of culture, the cells are then washed 3 times with PBS and lysed with 100 μl of lysis buffer (Promega) containing 1% Triton X-100 and 2 mM DTT for 15 minutes. The luciferase test is done on the cell lysate after centrifugation. The quantity of protein in the lysate is measured using the Bradford Test (Bio-Rad) and calculated according to a curve established with bovine gamma globulins. The luciferase activity is estimated on 15 μl of lysate plus 100 μl of reagent of luciferase containing luciferin (Promega). The relative luciferase units (RLU) are measured in a luminometer (Berthold Systems) and reported in mg of protein.

HT29 cells = experiment: cells; assay type: cell-based; settings: Homo sapiens, HT-29, Table 26, read-out: % inhibition of the growth of HT29 cells
Description: N-phthalimidoglutarimide (thalidomide) is a molecule that has a great variety of properties, such as a teratogenic effect, reduction of the production of TNF-α by the monocytes and suppression of angiogenesis. It has been shown that the teratogenic activity depends on the glutarimide residue, while the antiangiogenic effect depends on the phthaloyl group. We therefore prepared peptide SEQ ID NO: 46 derived from peptide SEQ ID NO: 26 (HBP3)2 and added glycyl phthaloyl in N-terminal. The technique used to test the activity of phthaloyl-HBP3 is the same as the one previously described for aspirin. The results of the inhibition of the growth (%) of HT29 cells shown in Table 27 are calculated as a percentage of the mean optical density in the wells of cells containing dilutions of the samples being tested and the mean optical density of the wells of cells that received only medium.

With VKRGLKLVKRGLKL [SEQ ID NO: 2] the MBC ([1]; ATCC 29212) was >160 µM, the MBC ([2]; ATCC 25923) was >160 µM and the MBC ([3]; ATCC 27853) was >160 µM. The MBC ([4]; ATCC 25922) was >160* μM, the “bactericide / anti-microbial activity” value [5] was “not active” and the intracellular cytochemical coloration (cells) was “Faint coloration”. The MBC [6] was >160 µM and the S-PO internalized (H1299 cells) was 84 pg/10^4 cells.
For “SEQ ID NO: 23: Peptide containing 12 lysines (K) and SEQ ID NO: 5 (KKKKKKKKKKKKVKRGLKLRQKYNKRAMDY; Mus musculis x Rattus norvegicus)”, the “luciferase expression RLU” value (CHO cells) was 11.5 10^6/mg of proteins and the “increase of luciferase expression compared with SEQ ID NO: 22” value (CHO cells; CHO cells) was 6 times.
For “SEQ ID NO: 22: Peptide containing 12 lysines (K) and SEQ ID NO: 6 (KKKKKKKKKKKKTYYSDTVKGRFTRQKYNKRA; Mus musculis x Rattus norvegicus)”, the “luciferase expression RLU” value (CHO cells) was 1.9 10^6/mg of proteins.
“KLAKLAKKLAKLAKKHLKKHLKKHLK [SEQ ID NO: 45]” was tested, and the MBC ([1]; E. faecalis) was >680 µM, the MBC ([2]; S. aureus) was >680 µM and the MBC ([3]; P. aeruginosa) was 0.5 µM. For the same compound, the MBC ([4]; E. coli, read-out: MBC) was 1 µM, the MBC ([7]; Ty2 (WHO)) was 0.66 µM and the MBC [6] was 1 µM.
With `CC(C)C[C@H](NC(=O)[C@H](CCCCN)NC(=O)[C@H](C)NC(=O)[C@H](CC(C)C)NC(=O)[C@H](CCCCN)NC(=O)[C@H](CCCCN)NC(=O)[C@H](C)NC(=O)[C@H](CC(C)C)NC(=O)[C@H](CCCCN)NC(=O)[C@H](C)NC(=O)[C@H](CC(C)C)NC(=O)[C@@H](N)CCCCN)C(=O)N[C@@H](C)C(=O)N[C@@H](CCCCN)C(=O)O` [SEQ ID NO: 24, reference compound] the MBC ([1]; E. faecalis) was >110 µM, the MBC ([2]; S. aureus) was >110 µM and the MBC ([3]; P. aeruginosa) was 27.5 µM (≈ 41.9 µg/mL). The MBC ([4]; E. coli, read-out: MBC) was 55 µM (≈ 83.8 µg/mL), the MBC ([7]; S. typhi-Ty2) was 27.5 µM (≈ 41.9 µg/mL) and the MBC [6] was 110 µM (≈ 168 µg/mL).
In the case of “SEQ ID NO: 40: SEQ ID NO: 10 (1047) plus 13 N-terminal lysines (KKKKKKKKKKKKKVKRGLKLRHVRPRVTRMDV; listed as Homo sapiens)”, the “RLU value relative to peptide SEQ ID NO: 41” value (3T3 cells) was 2.6 times and the “luciferase expression RLU” value (3T3 cells) was 1.9 × 10^6/mg of protein.
In the case of “SEQ ID NO: 42: SEQ ID NO: 39 (HBP10) plus 13 N-terminal lysines (KKKKKKKKKKKKKSRRARRSPRHLGSG; listed as Homo sapiens)”, the “RLU value relative to peptide SEQ ID NO: 41” value (3T3 cells) was 5.5 times and the “luciferase expression RLU” value (3T3 cells) was 5 × 10^6/mg of protein.
For `CC1(C)S[C@@H]2[C@H](NC(=O)[C@H](N)c3ccccc3)C(=O)N2[C@H]1C(=O)O` [Ampicillin, reference compound], the MBC ([1]; Enterococcus faecalis, ATCC29212, E. faecalis) was 2.75 µM (≈ 0.961 µg/mL), the MBC ([2]; Staphylococcus aureus, ATCC25923, S. aureus) was < 0.68 µM and the MBC ([3]; Pseudomonas aeruginosa, ATCC27853, P. aeruginosa) was > 696 µM. For the same compound, the MBC ([4]; Escherichia coli, ATCC25922, E. coli, read-out: MBC) was 22 µM (≈ 7.69 µg/mL), the MBC ([7]; Salmonella, TYPHI) was 5.5 µM (≈ 1.92 µg/mL) and the MBC [6] was 11 µM (≈ 3.84 µg/mL).
“SEQ ID NO: 41: SEQ ID NO: 28 (HBP3)2) plus 13 N-terminal lysines (KKKKKKKKKKKKKSERKKRRRESRKKRRRES; listed as Homo sapiens)” was tested, and the “luciferase expression RLU” value (3T3 cells) was 0.9 × 10^6/mg of protein.
`CC(=O)Oc1ccccc1C(=O)O` [Natural aspirin, aspirin, reference compound] gave an inhibition at 100 µg/mL (HT29 cells; 100 μg/ml) of 0%, an inhibition at 200 µg/mL (HT29 cells; 200 μg/ml) of 3% and an inhibition at 500 µg/mL (HT29 cells; 500 μg/ml) of 6%. For the same compound, the inhibition at 1000 µg/mL (HT29 cells; 1000 μg/ml) was 48%.
“KLAKLAKKLAKLAKGKRKKKGKLGKKRDP [SEQ ID NO: 44]” was tested, and the MBC ([1]; E. faecalis) was >110 µM, the MBC ([2]; S. aureus) was >110 µM and the MBC ([3]; P. aeruginosa) was >110 µM. It also gave an MBC ([4]; E. coli, read-out: MBC) of 1.7 µM, an MBC ([7]; Ty2 (WHO)) of 0.64 µM and an MBC [6] of 1.27 µM.
